In the assay the test system is P388 leukemia ip, CD2F1 mice, survival T/C. Briefly: NCI In Vivo Anticancer Drug Screen. Data for tumor model P388 Leukemia (intraperitoneal) in CD2F1 (CDF1) mice. The note with it: endpoint: median survival time, higher = longer survival. Put shortly:
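Mice carrying the transplanted tumor received test compound or vehicle. Survival was recorded in each group, and the value is the treated-group measurement divided by that of the vehicle-treated control group.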

[1] abbreviates: dose: 100.0 mg/kg/injection, schedule: Q01DX009 (ip), vehicle: saline with Tween-80.
Setting [2] is: dose: 200.0 mg/kg/injection, schedule: Q01DX009 (ip), vehicle: saline with Tween-80.
The mark [3] stands for this setting: dose: 400.0 mg/kg/injection, schedule: Q01DX009 (ip), vehicle: saline with Tween-80.
The mark [4] stands for this setting: dose: 50.0 mg/kg/injection, schedule: Q01DX005 (ip), vehicle: Klucel (hydroxypropylcellulose) (HPC).
Where [5] appears, read: dose: 100.0 mg/kg/injection, schedule: Q01DX005 (ip), vehicle: Klucel (hydroxypropylcellulose) (HPC).
Where [6] appears, read: dose: 200.0 mg/kg/injection, schedule: Q01DX005 (ip), vehicle: Klucel (hydroxypropylcellulose) (HPC).
The mark [7] stands for this setting: dose: 25.0 mg/kg/injection, schedule: Q01DX005 (ip), vehicle: saline with Tween-80.
[8] abbreviates: dose: 50.0 mg/kg/injection, schedule: Q01DX005 (ip), vehicle: saline with Tween-80.
Where [9] appears, read: dose: 100.0 mg/kg/injection, schedule: Q01DX005 (ip), vehicle: saline with Tween-80.
Where [10] appears, read: dose: 200.0 mg/kg/injection, schedule: Q01DX005 (ip), vehicle: saline with Tween-80.
[11] abbreviates: dose: 60.0 mg/kg/injection, schedule: Q01DX005 (ip), vehicle: Klucel (hydroxypropylcellulose) (HPC).
Setting [12] is: dose: 120.0 mg/kg/injection, schedule: Q01DX005 (ip), vehicle: Klucel (hydroxypropylcellulose) (HPC).
Setting [13] is: dose: 240.0 mg/kg/injection, schedule: Q01DX005 (ip), vehicle: Klucel (hydroxypropylcellulose) (HPC).

“And” between values parts separate entries of the source, which are not always exact repeats. Equal values may be shown once. Toxic doses and inconclusive results are not listed.

The values that follow come from PubChem BioAssay AID330 (DTP/NCI, 2004).

With `NC(=O)c1cnn(CCOS(=O)(=O)O)c1N`, the T/C (dose: 12.5 mg/kg/injection, schedule: Q01DX009 (ip), vehicle: water) is 103 % of control; the T/C (dose: 25.0 mg/kg/injection, schedule: Q01DX009 (ip), vehicle: water) was 101 % of control; the T/C (dose: 50.0 mg/kg/injection, schedule: Q01DX009 (ip), vehicle: water) was 108 % of control; the T/C (dose: 100.0 mg/kg/injection, schedule: Q01DX009 (ip), vehicle: water) was 107 % of control; the T/C (dose: 200.0 mg/kg/injection, schedule: Q01DX009 (ip), vehicle: water) is 103 % of control.
`c1ccc2c(c1)C1CCC2c2ccccc21`: the T/C was 118 % of control under setting [1], 104 % of control under setting [2] and 118 % of control under setting [3].
As for `Cc1cc2nc3c(C(O)C(O)C(O)CO)nn(-c4ccc(F)cc4)c3nc2cc1C` (configuration not stated), the T/C by setting is: under setting [4], 88 % of control; under setting [5], 86 % of control; under setting [6], 93 % of control.
In the case of `CC1(C)N=C(N)N=C(N)N1c1ccc(Cl)c(C(F)(F)F)c1`, the T/C (dose: 3.12 mg/kg/injection, schedule: Q01DX009 (ip), vehicle: saline) was 108 % of control; the T/C (dose: 12.5 mg/kg/injection, schedule: Q01DX009 (ip), vehicle: saline) is 124 % of control; the T/C (dose: 12.5 mg/kg/injection, schedule: Q01DX009 (ip), vehicle: suspension in saline) is 155 % of control; the T/C (dose: 25.0 mg/kg/injection, schedule: Q01DX009 (ip), vehicle: suspension in saline) was 172 % of control.
As to `Cn1c(N)c(N=O)c(=O)n(C)c1=O`, the T/C is, setting by setting: (dose: 90.0 mg/kg/injection, schedule: Q01DX009 (ip), vehicle: saline with Tween-80) 90 % of control; (dose: 180.0 mg/kg/injection, schedule: Q01DX009 (ip), vehicle: saline with Tween-80) 95 % of control; (dose: 360.0 mg/kg/injection, schedule: Q01DX009 (ip), vehicle: saline with Tween-80) 95 % of control.
As to `NC(CSC1c2ccccc2-c2ccccc21)C(=O)O` (configuration not stated), the T/C runs as follows: (dose: 60.0 mg/kg/injection, schedule: Q01DX005 (ip), vehicle: saline with Tween-80) 90 % of control; (dose: 120.0 mg/kg/injection, schedule: Q01DX005 (ip), vehicle: saline with Tween-80) 98 % of control; (dose: 240.0 mg/kg/injection, schedule: Q01DX005 (ip), vehicle: saline with Tween-80) 92 % of control.
Turning to `O=C(Cc1cc(-c2ccccc2)nc(=O)[nH]1)c1ccccc1`, the T/C is, setting by setting: (dose: 100.0 mg/kg/injection, schedule: Q04DX002 (ip), vehicle: saline with Tween-80) 97 % of control; (dose: 200.0 mg/kg/injection, schedule: Q04DX002 (ip), vehicle: saline with Tween-80) 93 % of control.
As to `CC(CCl)N(CCCl)Cc1cccc(Nc2ncnc3nc[nH]c23)c1` (configuration not stated), the T/C by setting is: (dose: 0.13 mg/kg/injection, schedule: Q01DX009 (ip), vehicle: saline) 118 % of control; (dose: 0.15 mg/kg/injection, schedule: Q04DX003 (ip), vehicle: saline) 104 % of control; (dose: 0.22 mg/kg/injection, schedule: Q04DX003 (ip), vehicle: saline) 109 % of control; (dose: 0.33 mg/kg/injection, schedule: Q04DX003 (ip), vehicle: saline) 118 % of control; (dose: 1.3 mg/kg/injection, schedule: Q01DX009 (ip), vehicle: saline sonified) 154 % of control; (dose: 2.0 mg/kg/injection, schedule: Q01DX009 (ip), vehicle: saline sonified) 181 % of control. The T/C (dose: 3.0 mg/kg/injection, schedule: Q01DX009 (ip), vehicle: saline sonified) was 172 % of control.
With `CC(C)(C)SSC(=S)C1CCCCC1`, the T/C is, setting by setting: under setting [7], 108 % of control; under setting [8], 106 % of control and 116 % of control; under setting [9], 108 % of control and 118 % of control; under setting [10], 117 % of control.
With `O=c1[nH]c(Cl)nc2nc(Cl)[nH]c12`, the T/C under setting [4] is 100 % of control, the T/C under setting [5] was 101 % of control and the T/C under setting [6] is 100 % of control.
With `COc1ccc(-c2cc(=O)c3c(O)cc(O)cc3o2)cc1Oc1ccc(-c2cc(=O)c3c(O)cc(O)cc3o2)cc1`, the T/C is 96 % of control under setting [11], 96 % of control under setting [12] and 88 % of control under setting [13].
Regarding `Cc1c2ccncc2c(O)c2c3ccccc3n(C)c12`, the T/C (dose: 12.5 mg/kg/injection, schedule: Q01DX005 (ip), vehicle: Klucel (hydroxypropylcellulose) (HPC)) is 108 % of control; the T/C (dose: 25.0 mg/kg/injection, schedule: Q01DX005 (ip), vehicle: Klucel (hydroxypropylcellulose) (HPC)) was 110 % of control; the T/C under setting [4] was 108 % of control.
Turning to `COC(C)C(Br)C(=O)NN=C(c1ccccc1)c1ccccc1` (configuration not stated), the T/C (dose: 100.0 mg/kg/injection, schedule: Q04DX003 (ip), vehicle: saline) is 95 % of control; the T/C (dose: 200.0 mg/kg/injection, schedule: Q04DX003 (ip), vehicle: saline) was 93 % of control; the T/C (dose: 400.0 mg/kg/injection, schedule: Q04DX003 (ip), vehicle: saline) was 95 % of control.
As to `CC1=C2CCC3(C)C(=C2OC1=O)C(C)=C(Cl)C(Cl)C3Cl` (configuration not stated), the T/C runs as follows: under setting [4], 113 % of control; under setting [5], 119 % of control; under setting [6], 115 % of control.
On to `CC(O)(CO)C(C)(O)c1cn(O)c(=N)c(C(=O)OCc2ccccc2)n1` (configuration not stated), for which the T/C runs as follows: (dose: 100.0 mg/kg/injection, schedule: Q01DX001 (ip), vehicle: saline) 99 % of control; (dose: 200.0 mg/kg/injection, schedule: Q01DX001 (ip), vehicle: saline) 95 % of control; (dose: 400.0 mg/kg/injection, schedule: Q01DX001 (ip), vehicle: saline) 88 % of control.
As for `CN(C)CCCN1c2ccccc2C2CC2c2ccccc21` (configuration not stated), the T/C by setting is: (dose: 5.0 mg/kg/injection, schedule: Q01DX009 (ip), vehicle: saline with Tween-80) 100 % of control; under setting [1], 98 % of control.
Turning to `COc1ccc(NC(=O)Oc2ccc3c(C)cc(=O)oc3c2)c(OC)c1`, the T/C was 122 % of control under setting [1], 121 % of control under setting [2] and 91 % of control under setting [3].
Turning to `COc1ccc2c(c1)OC(C)(C)C(c1ccccc1)=C2c1ccc(OCCBr)c([N+](=O)[O-])c1`, the T/C is, setting by setting: under setting [4], 107 % of control; under setting [5], 98 % of control; under setting [6], 101 % of control.
As for `CC1=C(/C=C/C(C)=C/C=C/C(C)=C/C(=O)Nc2ccc(O)cc2)C(C)(C)CCC1`, the T/C under setting [7] was 97 % of control and the T/C under setting [8] was 90 % of control.
On to `CC(/C=C/c1ccc(C)cc1)=N\NC(N)=S`, for which the T/C is 99 % of control (dose: 1.5 mg/kg/injection, schedule: Q01DX005 (ip), vehicle: Klucel + Tween-80); 105 % of control (dose: 3.0 mg/kg/injection, schedule: Q01DX005 (ip), vehicle: Klucel + Tween-80); 105 % of control (dose: 6.0 mg/kg/injection, schedule: Q01DX005 (ip), vehicle: Klucel + Tween-80); 112 % of control (dose: 6.0 mg/kg/injection, schedule: Q01DX005 (ip), vehicle: saline).
On to `CCO/C=C(\C)CC1([N+](=O)[O-])C(=O)c2ccccc2C1=O`, for which the T/C runs as follows: under setting [11], 107 % of control; under setting [12], 107 % of control; under setting [13], 117 % of control.
Take `CSC1=N[N+]2=C(C)c3ccccc3O[B-]2(c2ccccc2)S1` (configuration not stated): the T/C is 96 % of control under setting [8], 92 % of control under setting [9] and 87 % of control under setting [10].
